Data as given in article PMC8480776, “Selenium Derivatives as Promising Therapy for Chagas Disease: In Vitro and In Vivo Studies” (ACS Infectious Diseases, 2021).
Read-outs that look alike come from different tables or passages of the source.

Tests used:
[1] = tested on: epimastigotes of T. cruzi Arequipa strain; experiment: Flow cytometry analysis of nucleic acid levels (acridine orange); type: cell-based, Trypanosoma cruzi; conditions: IC25 concentrations, 72 h
[2] = tested on: Vero cells infected with T. cruzi Arequipa strain; experiment: Infection rate in Vero cells (infected cells), Arequipa strain; type: cell-based; conditions: Trypanosoma cruzi, 72 h of treatment
[3] = tested on: T. cruzi trypomastigotes, Arequipa strain; experiment: Screening against bloodstream trypomastigotes, Arequipa strain; type: cell-based, Trypanosoma cruzi; conditions: Trypanosoma cruzi; bloodstream trypomastigotes, 24 h + 4 h resazurin; read-out: activity IC50, Arequipa strain, trypom. forms
[4] = tested on: T. cruzi trypomastigotes, Tulahuen strain; experiment: Screening against bloodstream trypomastigotes, Tulahuen strain; type: cell-based, Trypanosoma cruzi; conditions: Trypanosoma cruzi, TULAHUEN; bloodstream trypomastigotes, 24 h + 4 h resazurin; read-out: activity IC50, Tulahuen strain, trypom. forms
[5] = type: in vivo, BALB/c mice; conditions: variation vs control
Method: (§1) Female BALB/c mice aged 10–12 weeks and with a size of 20–24 g were divided into five groups (n = 3 per group): 0, negative control group (uninfected and untreated mice); I, positive control group (infected and untreated mice); II, BZN group (infected mice treated with BZN); III, 26 group (infected mice treated with 26); and IV, 28 group (infected mice treated with 28).
(§2) The tested selenocompounds and BZN were prepared at 2 mg·mL^–1 in an aqueous suspension vehicle containing 5% (v/v) DMSO and 0.5% (w/v) hydroxypropyl methylcellulose, as previously reported.[52] Compounds (20 mg·kg^–1 per day) were administered for 5 consecutive days (total dosages of 100 mg·kg^–1), and vehicle only was administered in the negative and positive control groups. Treatments began when the infection was confirmed (9 dpi) for acute-phase-treated mice, and when it was established that the animals moved into the chronic phase (100 dpi, for chronic-phase-treated mice; Scheme 1).
Serum samples obtained from blood in several days post-infection (Scheme 1) were sent to the Biochemical Service (University of Granada) to measure a series of biochemical parameters with the commercial Cromakit using a clinical chemistry analyzer (BS-200, Shenzhen Mindray Biomedical Electronics Co., LTD), as previously described.[41]

[6] = tested on: T. cruzi Arequipa strain; experiment: In vivo trypanocidal activity on BALB/c mice (acute and chronic Chagas disease); parameters: species or system Trypanosoma cruzi
Method: as §1
Mice were infected by intraperitoneal injection of 5 × 10^5 BTs of T. cruzi Arequipa strain per mouse in 200 μL PBS.[42] Subsequently, the treatment was intraperitoneally administered (∼200 μL) once daily for 5 consecutive days.
as §2
[…]. Parasitemia was expressed as parasites·mL^–1.
Immunosuppression was performed by intraperitoneal injection of three doses of 200 mg·kg^–1 of ISOPAC CP at 3–4 day intervals (Scheme 1), as previously reported.[53] Mice were closely monitored for side effects or for secondary infections due to immunosuppression. Within 7 days after the last CP injection, parasitemia reactivation was determined by counting BTs according the procedure described for parasitemia in the acute phase.[42]
On 145 dpi, the mice were euthanized using CO2, followed by exsanguination via cardiac puncture, and blood was collected. […]. In addition, spleens were weighed to assess splenomegaly.[42]
DNA extraction of the post-mortem organs/tissues was performed using Wizard Genomic DNA Purification Kit,[41] and the extracted DNA was subjected to amplification by PCR based on the spliced leader (SL) intergenic region sequence of T. cruzi (for detailed description, see literature reported previously).[55] Finally, the PCR products were resolved by electrophoresis on a 2% agarose gel (containing GelRed nucleic gel stain) for 90 min at 90 V.
Circulating antibodies in serum against both antigens were quantitatively evaluated in triplicate by the ELISA test in 96-well plates using diluted serum samples (1:80 in PBS), as previously described.[41]

[7] = tested on: T. cruzi amastigotes, SN3 strain; experiment: Screening against intracellular amastigotes, SN3 strain; type: cell-based, Trypanosoma cruzi; conditions: Trypanosoma cruzi; amastigotes in Vero cells, 72 h; read-out: activity IC50, SN3 strain, am. forms
[8] = tested on: T. cruzi amastigotes, Tulahuen strain; experiment: Screening against intracellular amastigotes, Tulahuen strain; type: cell-based, Trypanosoma cruzi; conditions: Trypanosoma cruzi, TULAHUEN; amastigotes in Vero cells, 72 h; read-out: activity IC50, Tulahuen strain, am. forms
[9] = tested on: Vero cells; experiment: Cytotoxicity test on Vero cells; type: cell-based; conditions: Chlorocebus sabaeus, 48 h + 24 h resazurin, read-out: Toxicity IC50 Vero cell
[10] = tested on: T. cruzi epimastigotes, Tulahuen strain; experiment: Screening against extracellular epimastigotes, Tulahuen strain; type: cell-based, Trypanosoma cruzi; conditions: Trypanosoma cruzi, TULAHUEN; 48 h + 24 h resazurin; read-out: Activity IC50, epimastigote form, Tulahuen strain
[11] = tested on: T. cruzi amastigotes, Arequipa strain; experiment: Screening against intracellular amastigotes, Arequipa strain; type: cell-based, Trypanosoma cruzi; conditions: Trypanosoma cruzi; amastigotes in Vero cells, 72 h; read-out: activity IC50, Arequipa strain, am. forms
[12] = treatment in acute phase, 15th dpi (2 days after treatment)
[13] = treatment in acute phase, necropsy day
[14] = treatment in chronic phase, 106th dpi (2 days after treatment)
[15] = treatment in chronic phase, necropsy day

Structure (SMILES): O=C(Cn1ccnc1[N+](=O)[O-])NCc1ccccc1 [BZN, benznidazole, reference compound]
- inhibition of nucleic acid levels [1]: up to 22%
- IC50 [2]: 15.1 µM
- IC50 [3]: 12.4 ± 1.1 µM
- IC50 [4]: 15.1 ± 1.3 µM
- ALP (liver marker) [5, 12]: = (=, variation ≤ 10%)
- ALT/GPT (liver marker) [5, 12]: ++ (++/--, 20-30% increase/decrease over the range)
- AST/GOT (liver marker) [5, 12]: ++++ (++++/----, ˃ 40% increase/decrease over the range)
- CK-MB (heart marker) [5, 12]: = (=, variation ≤ 10%)
- LDH (heart marker) [5, 12]: = (=, variation ≤ 10%)
- Total bilirubin (liver marker) [5, 12]: ++++ (++++/----, ˃ 40% increase/decrease over the range)
- Urea (kidney marker) [5, 12]: -- (++/--, 20-30% increase/decrease over the range)
- Uric acid (kidney marker) [5, 12]: ---- (++++/----, ˃ 40% increase/decrease over the range)
- ALP (liver marker) [5, 13]: = (=, variation ≤ 10%)
- ALT/GPT (liver marker) [5, 13]: = (=, variation ≤ 10%)
- AST/GOT (liver marker) [5, 13]: + (+/-, 10-20% increase/decrease over the range)
- CK-MB (heart marker) [5, 13]: - (+/-, 10-20% increase/decrease over the range)
- LDH (heart marker) [5, 13]: = (=, variation ≤ 10%)
- Total bilirubin (liver marker) [5, 13]: ++ (++/--, 20-30% increase/decrease over the range)
- Urea (kidney marker) [5, 13]: -- (++/--, 20-30% increase/decrease over the range)
- Uric acid (kidney marker) [5, 13]: - (+/-, 10-20% increase/decrease over the range)
- ALP (liver marker) [5, 14]: ++++ (++++/----, ˃ 40% increase/decrease over the range)
- ALT/GPT (liver marker) [5, 14]: ++ (++/--, 20-30% increase/decrease over the range)
- AST/GOT (liver marker) [5, 14]: + (+/-, 10-20% increase/decrease over the range)
- CK-MB (heart marker) [5, 14]: -- (++/--, 20-30% increase/decrease over the range)
- LDH (heart marker) [5, 14]: -- (++/--, 20-30% increase/decrease over the range)
- Total bilirubin (liver marker) [5, 14]: + (+/-, 10-20% increase/decrease over the range)
- Urea (kidney marker) [5, 14]: - (+/-, 10-20% increase/decrease over the range)
- Uric acid (kidney marker) [5, 14]: - (+/-, 10-20% increase/decrease over the range)
- ALP (liver marker) [5, 15]: = (=, variation ≤ 10%)
- ALT/GPT (liver marker) [5, 15]: ++ (++/--, 20-30% increase/decrease over the range)
- AST/GOT (liver marker) [5, 15]: + (+/-, 10-20% increase/decrease over the range)
- CK-MB (heart marker) [5, 15]: -- (++/--, 20-30% increase/decrease over the range)
- LDH (heart marker) [5, 15]: -- (++/--, 20-30% increase/decrease over the range)
- Total bilirubin (liver marker) [5, 15]: ++ (++/--, 20-30% increase/decrease over the range)
- Urea (kidney marker) [5, 15]: = (=, variation ≤ 10%)
- Uric acid (kidney marker) [5, 15]: - (+/-, 10-20% increase/decrease over the range)
- parasite-free organs/tissues by PCR, acute phase treatment ([6]; 20 mg·kg–1 per day i.p. 5 days from 9 dpi, necropsy 145 dpi): 28.6%
- anti-T. cruzi IgG levels (ELISA), chronic phase treatment ([6]; 20 mg·kg–1 per day i.p. 5 days from 100 dpi): similar
- parasite-free organs/tissues by PCR, chronic phase treatment ([6]; 20 mg·kg–1 per day i.p. 5 days from 100 dpi, necropsy 145 dpi): 42.9%
- IC50 [7]: 16.6 ± 1.4 µM
- IC50 [8]: 10 ± 0.8 µM
- IC50 [9]: 80.4 ± 7.1 µM
- IC50 [10]: 19.7 ± 1.7 µM
- IC50 [11]: 8.3 ± 0.7 µM
